Test results: ChEMBL document CHEMBL3885881, “DrugMatrix”

Species on record: Rattus norvegicus
Assay: DrugMatrix - Regimen: Daily Repeat
Format: toxicity, organism-based, Sprague-Dawley
Parameters: regimen Daily Repeat, gender Male, age 6-8 weeks
Conditions: in vivo, po, route oral GAVAGE, vehicle 100 % WATER; for ABSOLUTE BASOPHIL / ABSOLUTE EOSINOPHIL / ABSOLUTE LYMPHOCYTE / ABSOLUTE MONOCYTE / ABSOLUTE SEGMENTED NEUTROPHIL / BASOPHIL / EOSINOPHIL / ERYTHROCYTE COUNT / HEMATOCRIT / HEMOGLOBIN / LEUKOCYTE COUNT / LYMPHOCYTE / MEAN CORPUSCULAR HEMOGLOBIN / MEAN CORPUSCULAR HEMOGLOBIN CONCENTRATION / MEAN CORPUSCULAR VOLUME / MONOCYTE / NEUTROPHIL / NUCLEATED RED BLOOD CELLS / PLATELET COUNT: tissue Blood; for ALANINE AMINOTRANSFERASE / ALBUMIN / ALKALINE PHOSPHATASE / ASPARTATE AMINOTRANSFERASE / BLOOD UREA NITROGEN / CARBON DIOXIDE / CHLORIDE / CHOLESTEROL / CREATINE PHOSPHOKINASE / CREATININE / GLUCOSE / LACTATE DEHYDROGENASE / LIPASE / PHOSPHORUS / POTASSIUM / SODIUM / TOTAL BILIRUBIN / TOTAL PROTEIN / URIC ACID: tissue Plasma
[1] = 0 mg/kg, 72 h, dose level Control, time 3 day
[2] = 0 mg/kg, 120 h, dose level Control, time 5 day
[3] = 200 mg/kg, 72 h, dose level Low, time 3 day

For `CC(O)CO` (centres undefined) [PROPYLENE GLYCOL], the “ABSOLUTE BASOPHIL” value [1] was 0 CELLS/uL, the “ABSOLUTE EOSINOPHIL” value [1] was 40 CELLS/uL and the “ABSOLUTE LYMPHOCYTE” value [1] was 13599.5 CELLS/uL. For the same compound, the “ABSOLUTE MONOCYTE” value [1] was 239.33 CELLS/uL, the “ABSOLUTE SEGMENTED NEUTROPHIL” value [1] was 1021.17 CELLS/uL and the BASOPHIL [1] was 0%. The EOSINOPHIL [1] was 0.33%, the “ERYTHROCYTE COUNT” value [1] was 5.71 x10E6/uL and the HEMATOCRIT [1] was 36.35%. For the same compound, the HEMOGLOBIN [1] was 14.05 G/DL, the “LEUKOCYTE COUNT” value [1] was 14.9 x10E3/uL and the LYMPHOCYTE [1] was 91%. The “MEAN CORPUSCULAR HEMOGLOBIN” value [1] was 24.62 pg, the “MEAN CORPUSCULAR HEMOGLOBIN CONCENTRATION” value [1] was 38.65 G/DL and the “MEAN CORPUSCULAR VOLUME” value [1] was 63.7 fL. The MONOCYTE [1] was 1.5%, the NEUTROPHIL [1] was 7.17% and the “NUCLEATED RED BLOOD CELLS” value [1] was 0.33 /100WBC. The “PLATELET COUNT” value [1] was 1225.5 x10E3/uL, the “ALANINE AMINOTRANSFERASE” value [1] was 48.5 u/L and the ALBUMIN [1] was 4.18 G/DL. For the same compound, the “ALKALINE PHOSPHATASE” value [1] was 390.83 u/L, the “ASPARTATE AMINOTRANSFERASE” value [1] was 89 u/L and the “BLOOD UREA NITROGEN” value [1] was 14.83 mg/dL. The “CARBON DIOXIDE” value [1] was 24.83 mmol/L, the CHLORIDE [1] was 100.83 MEQ/L and the CHOLESTEROL [1] was 72.5 mg/dL. For the same compound, the “CREATINE PHOSPHOKINASE” value [1] was 503 u/L, the CREATININE [1] was 0.2 mg/dL and the GLUCOSE [1] was 163 mg/dL. For the same compound, the “LACTATE DEHYDROGENASE” value [1] was 316.83 u/L, the LIPASE [1] was 9.83 u/L and the PHOSPHORUS [1] was 11.57 mg/dL. For the same compound, the POTASSIUM [1] was 6.16 MEQ/L, the SODIUM [1] was 142.62 MEQ/L and the “TOTAL BILIRUBIN” value [1] was 0.2 mg/dL. For the same compound, the “TOTAL PROTEIN” value [1] was 5.8 G/DL, the “URIC ACID” value [1] was 1.65 mg/dL and the “ABSOLUTE BASOPHIL” value [2] was 0 CELLS/uL. For the same compound, the “ABSOLUTE EOSINOPHIL” value [2] was 21 CELLS/uL, the “ABSOLUTE LYMPHOCYTE” value [2] was 14288.5 CELLS/uL and the “ABSOLUTE MONOCYTE” value [2] was 205.33 CELLS/uL. The “ABSOLUTE SEGMENTED NEUTROPHIL” value [2] was 968.5 CELLS/uL, the BASOPHIL [2] was 0% and the EOSINOPHIL [2] was 0.17%. For the same compound, the “ERYTHROCYTE COUNT” value [2] was 5.83 x10E6/uL, the HEMATOCRIT [2] was 36.53% and the HEMOGLOBIN [2] was 14.4 G/DL. For the same compound, the “LEUKOCYTE COUNT” value [2] was 15.48 x10E3/uL, the LYMPHOCYTE [2] was 92% and the “MEAN CORPUSCULAR HEMOGLOBIN” value [2] was 24.72 pg. For the same compound, the “MEAN CORPUSCULAR HEMOGLOBIN CONCENTRATION” value [2] was 39.43 G/DL, the “MEAN CORPUSCULAR VOLUME” value [2] was 62.68 fL and the MONOCYTE [2] was 1.33%. The NEUTROPHIL [2] was 6.5%, the “NUCLEATED RED BLOOD CELLS” value [2] was 0.17 /100WBC and the “PLATELET COUNT” value [2] was 1280.5 x10E3/uL. For the same compound, the “ALANINE AMINOTRANSFERASE” value [2] was 50 u/L, the ALBUMIN [2] was 4.28 G/DL and the “ALKALINE PHOSPHATASE” value [2] was 380.17 u/L. The “ASPARTATE AMINOTRANSFERASE” value [2] was 82.67 u/L, the “BLOOD UREA NITROGEN” value [2] was 15.33 mg/dL and the “CARBON DIOXIDE” value [2] was 27.17 mmol/L. The CHLORIDE [2] was 100.33 MEQ/L, the CHOLESTEROL [2] was 60.67 mg/dL and the “CREATINE PHOSPHOKINASE” value [2] was 441.5 u/L. For the same compound, the CREATININE [2] was 0.16 mg/dL, the GLUCOSE [2] was 146 mg/dL and the “LACTATE DEHYDROGENASE” value [2] was 189.33 u/L. For the same compound, the LIPASE [2] was 9.17 u/L, the PHOSPHORUS [2] was 11.67 mg/dL and the POTASSIUM [2] was 6.86 MEQ/L. The SODIUM [2] was 142.33 MEQ/L, the “TOTAL BILIRUBIN” value [2] was 0.2 mg/dL and the “TOTAL PROTEIN” value [2] was 6.12 G/DL. For the same compound, the “URIC ACID” value [2] was 1.82 mg/dL, the “ABSOLUTE BASOPHIL” value [3] was 0 CELLS/uL and the “ABSOLUTE EOSINOPHIL” value [3] was 56 CELLS/uL. For the same compound, the “ABSOLUTE LYMPHOCYTE” value [3] was 15882 CELLS/uL, the “ABSOLUTE MONOCYTE” value [3] was 135.33 CELLS/uL and the “ABSOLUTE SEGMENTED NEUTROPHIL” value [3] was 1393.33 CELLS/uL. The BASOPHIL [3] was 0%, the EOSINOPHIL [3] was 0.33% and the “ERYTHROCYTE COUNT” value [3] was 5.52 x10E6/uL. The HEMATOCRIT [3] was 35.37%, the HEMOGLOBIN [3] was 13.53 G/DL and the “LEUKOCYTE COUNT” value [3] was 17.47 x10E3/uL. For the same compound, the LYMPHOCYTE [3] was 90.67%, the “MEAN CORPUSCULAR HEMOGLOBIN” value [3] was 24.5 pg and the “MEAN CORPUSCULAR HEMOGLOBIN CONCENTRATION” value [3] was 38.27 G/DL. For the same compound, the “MEAN CORPUSCULAR VOLUME” value [3] was 64.1 fL, the MONOCYTE [3] was 0.67% and the NEUTROPHIL [3] was 8.33%. The “NUCLEATED RED BLOOD CELLS” value [3] was 0.33 /100WBC, the “PLATELET COUNT” value [3] was 1345.33 x10E3/uL and the “ALANINE AMINOTRANSFERASE” value [3] was 59 u/L. The ALBUMIN [3] was 4.47 G/DL, the “ALKALINE PHOSPHATASE” value [3] was 378.33 u/L and the “ASPARTATE AMINOTRANSFERASE” value [3] was 90.33 u/L. For the same compound, the “BLOOD UREA NITROGEN” value [3] was 16.33 mg/dL, the “CARBON DIOXIDE” value [3] was 27.33 mmol/L and the CHLORIDE [3] was 99.67 MEQ/L. The CHOLESTEROL [3] was 81.33 mg/dL, the “CREATINE PHOSPHOKINASE” value [3] was 318 u/L and the CREATININE [3] was 0.22 mg/dL. For the same compound, the GLUCOSE [3] was 153.67 mg/dL, the “LACTATE DEHYDROGENASE” value [3] was 212.33 u/L and the LIPASE [3] was 9 u/L. The PHOSPHORUS [3] was 13.4 mg/dL, the POTASSIUM [3] was 7.26 MEQ/L and the SODIUM [3] was 145.23 MEQ/L. For the same compound, the “TOTAL BILIRUBIN” value [3] was 0.2 mg/dL, the “TOTAL PROTEIN” value [3] was 6.13 G/DL and the “URIC ACID” value [3] was 2.2 mg/dL.
